Laboratory results as given in patent US7135466B2 (Kirin Beer Kabushiki Kaisha, priority 1999, dated 2006).
Read-outs that look alike come from different tables or passages of the source.

How the values were obtained:
[1] = biological target: T1, c-kit (Homo sapiens, UniProt P10721); assay: Inhibitory activity against c-kit autophosphorylation (MO7e cells, h-SCF); assay type: cell-based; conditions: for IC50: MO7e cells, read-out: c-kit IC50; for inhibition at 1 µM: Mo7e, at 1000 nM
T1 construct: MO7e (human megakaryocytic leukemia cell line) which had been arrested for 20 hr; endogenous in cells; host or cells: MO7e human megakaryocytic leukemia cell line
In short: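 Phospho-c-kit ELISA: plate-bound PY-20 anti-phosphotyrosine captures lysate, anti-c-kit plus peroxidase-labelled secondary antibody detect, read at 450 nm. Lysates come from 20 hr-arrested MO7e cells given compound for 1 hr before a 5 min 50 ng/ml h-SCF stimulus.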

[2] = biological target: T2, PDGF-Ra (Homo sapiens, UniProt P16234); assay: Inhibitory activity against PDGF-Ra phosphorylation by PDGF-AA stimulation using G292; assay type: cell-based; conditions: for IC50: > means inhibition at indicated concentration not more than 50%, < and << not less than 50%, read-out: PDGF (E) IC50; for inhibition at 0.1 µM: G292, at 100 nM, read-out: PDGF (E) inhibition (%) at 100 nM
T2 construct: host or cells: G-292 human osteosarcoma cells
In short: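 In G-292 osteosarcoma cells kept overnight in 0.1% FBS, compound exposure (1 hr, 37 °C) preceded PDGF-AA stimulation at 50 ng/ml for 5 min; receptor phosphotyrosine was then detected by PY-20 capture ELISA.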

[3] = figure within parentheses in −( ) or >1000( )
[4] = figure in parentheses in >100( )

T2 sequence (P16234 24-1089): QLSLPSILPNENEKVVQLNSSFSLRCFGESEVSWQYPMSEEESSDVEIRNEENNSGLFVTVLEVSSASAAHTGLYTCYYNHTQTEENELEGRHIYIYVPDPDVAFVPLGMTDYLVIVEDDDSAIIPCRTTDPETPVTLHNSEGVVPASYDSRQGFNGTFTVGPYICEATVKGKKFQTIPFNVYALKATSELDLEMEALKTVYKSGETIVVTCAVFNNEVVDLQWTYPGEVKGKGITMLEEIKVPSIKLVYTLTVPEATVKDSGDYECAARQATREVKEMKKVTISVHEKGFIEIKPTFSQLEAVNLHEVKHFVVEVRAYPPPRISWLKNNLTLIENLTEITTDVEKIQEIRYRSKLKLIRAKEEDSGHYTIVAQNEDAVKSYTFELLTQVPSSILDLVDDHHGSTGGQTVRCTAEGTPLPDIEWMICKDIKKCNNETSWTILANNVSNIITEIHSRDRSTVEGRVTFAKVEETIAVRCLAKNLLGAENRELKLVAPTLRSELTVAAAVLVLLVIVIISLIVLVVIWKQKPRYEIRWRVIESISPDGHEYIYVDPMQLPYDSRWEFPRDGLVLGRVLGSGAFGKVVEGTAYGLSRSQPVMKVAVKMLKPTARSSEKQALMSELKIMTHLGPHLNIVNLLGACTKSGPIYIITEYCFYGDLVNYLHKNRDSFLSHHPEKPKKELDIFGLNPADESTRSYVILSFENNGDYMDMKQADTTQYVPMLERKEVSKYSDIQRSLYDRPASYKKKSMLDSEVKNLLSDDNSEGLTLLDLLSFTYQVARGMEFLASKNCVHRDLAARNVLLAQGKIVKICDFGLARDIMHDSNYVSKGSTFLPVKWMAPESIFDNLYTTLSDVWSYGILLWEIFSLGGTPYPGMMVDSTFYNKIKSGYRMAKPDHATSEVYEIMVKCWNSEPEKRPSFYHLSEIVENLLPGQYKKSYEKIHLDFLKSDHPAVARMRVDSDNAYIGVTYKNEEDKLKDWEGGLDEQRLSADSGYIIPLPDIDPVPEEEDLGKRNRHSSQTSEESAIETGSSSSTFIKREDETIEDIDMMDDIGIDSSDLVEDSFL
T1 sequence (P10721 26-976): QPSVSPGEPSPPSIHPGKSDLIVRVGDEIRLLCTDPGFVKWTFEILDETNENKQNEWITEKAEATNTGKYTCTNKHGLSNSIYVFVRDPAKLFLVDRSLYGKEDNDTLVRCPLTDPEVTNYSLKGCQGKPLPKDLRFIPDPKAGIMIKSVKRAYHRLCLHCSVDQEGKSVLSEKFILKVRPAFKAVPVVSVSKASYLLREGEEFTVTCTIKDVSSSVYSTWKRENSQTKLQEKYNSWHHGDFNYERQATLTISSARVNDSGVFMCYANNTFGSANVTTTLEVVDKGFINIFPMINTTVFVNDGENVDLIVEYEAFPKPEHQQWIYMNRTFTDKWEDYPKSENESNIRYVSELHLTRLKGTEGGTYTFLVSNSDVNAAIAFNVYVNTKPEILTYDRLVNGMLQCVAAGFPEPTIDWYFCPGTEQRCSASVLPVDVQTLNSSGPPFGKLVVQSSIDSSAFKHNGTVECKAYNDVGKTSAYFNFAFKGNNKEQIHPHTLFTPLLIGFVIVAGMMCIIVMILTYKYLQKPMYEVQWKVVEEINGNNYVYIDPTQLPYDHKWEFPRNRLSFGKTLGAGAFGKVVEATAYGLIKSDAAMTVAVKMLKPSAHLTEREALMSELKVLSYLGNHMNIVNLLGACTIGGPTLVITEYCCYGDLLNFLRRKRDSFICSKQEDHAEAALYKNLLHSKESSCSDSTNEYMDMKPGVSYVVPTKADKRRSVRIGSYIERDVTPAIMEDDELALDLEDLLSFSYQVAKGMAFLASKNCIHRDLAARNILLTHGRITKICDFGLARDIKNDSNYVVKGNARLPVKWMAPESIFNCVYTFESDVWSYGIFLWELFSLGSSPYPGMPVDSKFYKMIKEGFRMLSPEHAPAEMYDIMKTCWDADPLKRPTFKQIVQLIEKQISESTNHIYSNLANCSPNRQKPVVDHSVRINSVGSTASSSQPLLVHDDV

Structure (SMILES)	IC50 [2]	IC50 ([1]; 50 ng/ml h-SCF)	IC50 ([1]; h-SCF 50 ng/ml)	IC50 ([2]; Pharmacological Test Example 1)	other results
COc1cc2ncnc(Oc3ccc(NC(=S)NC(=O)C4CCCCC4)cc3)c2cc1OC [Example 1180, N-Cyclohexylcarbonyl-N′-{4-[(6,7-dimethoxy-4-quinazolinyl)oxy]phenyl}thiourea]	< 10 nM				IC50 ([1]; h-SCF stimulation): 480 nM
COc1cc2ncnc(Oc3ccc(NC(=S)NCCN(C)C)cc3)c2cc1OC [Example 559, N-{4-[(6,7-Dimethoxy-4-quinazolinyl)oxy]phenyl}-N′-(2-dimethylaminoethyl)thiourea]	36 nM	711 nM			
COc1ccccc1CC(=O)NC(=S)Nc1ccc(Oc2ccnc3cc(OC)c(OC)cc23)cc1 [Example 733, N-{4-[(6,7-Dimethoxy-4-quinolyl)oxy]phenyl}-N′-[2-(2-methoxyphenyl)acetyl]thiourea]	29 nM	186 nM			
COc1cccc(COC(=O)Nc2cc(C)c(Oc3ccnc4cc(OC)c(OC)cc34)cc2C)c1 [Example 240, 3-Methoxybenzyl N-{4-[(6,7-dimethoxy-4-quinolyl)oxy]-2,5-dimethylphenyl}carbamate]			248 nM	17 nM	
COc1cc2nccc(Oc3ccc(NC(=O)NC4CCN(Cc5ccccc5)CC4)c(C)c3)c2cc1OC [Example 643, N-(1-Benzyl-4-piperidyl)-N′-{4-[(6,7-dimethoxy-4-quinolyl)oxy]-2-methylphenyl}urea]	> 100 nM				inhibition at 1 µM [1, 3]: 2%; inhibition at 0.1 µM ([2]; figure within parentheses in >100( )): 40%
COc1ccc(C(=O)NC(=S)Nc2ccc(Oc3ccnc4cc(OC)c(OC)cc34)c(Cl)c2)cc1OC [Example 1204, N-{3-Chloro-4-[(6,7-dimethoxy-4-quinolyl)oxy]phenyl}-N′-(3,4-dimethoxybenzoyl)thiourea]	18 nM				IC50 ([1]; h-SCF stimulation): 434 nM
COc1ccc(C(C)OC(=O)Nc2ccc(Oc3ncnc4cc(OC)c(OC)cc34)cc2)cc1 (centres unmarked) [Example 35, 1-(4-Methoxyphenyl)ethyl N-{4-[(6,7-dimethoxy-4-quinazolinyl)oxy]phenyl}carbamate]			342 nM	< 10 nM	
CCC(OC(=O)Nc1ccc(Oc2ncnc3cc(OC)c(OC)cc23)cc1Cl)c1ccccc1 (centres unmarked) [Example 346, 1-Phenylpropyl N-{2-chloro-4-[(6,7-dimethoxy-4-quinazolinyl)oxy]phenyl}carbamate]				41 nM	inhibition at 1 µM ([1]; figure in parentheses in −( )): 37%
COc1cc2nccc(Oc3ccc(NC(=O)OCCN4CCOCC4)cc3)c2cc1OC [Example 306, 2-Morpholinoethyl N-{4-[(6,7-dimethoxy-4-quinolyl)oxy]phenyl}carbamate]			72 nM	11 nM	
CCCCCCOC(=O)Nc1ccc(Oc2ncnc3cc(OC)c(OC)cc23)cc1[N+](=O)[O-] [Example 509, Hexyl N-{4-[(6,7-dimethoxy-4-quinazolinyl)oxy]-2-nitrophenyl}carbamate]	26 nM	164 nM			
COc1cc2ncnc(Oc3ccc(NC(=O)OCCC4CCCCC4)cc3)c2cc1OC [Example 356, 2-Cyclohexylethyl N-{4-[(6,7-dimethoxy-4-quinazolinyl)oxy]phenyl}carbamate]			66 nM	< 10 nM	
COc1cc2ncnc(Oc3ccc(NC(=O)NCCN4CCCCC4)cc3)c2cc1OC [Example 676, N-{4-[(6,7-Dimethoxy-4-quinazolinyl)oxy]phenyl}-N′-(2-piperidinoethyl)urea]	26 nM	632 nM			
COc1cc2nccc(Oc3ccc(NC(=O)OC4CCCC4)cc3)c2cc1OC [Example 363, Cyclopentyl N-{4-[(6,7-dimethoxy-4-quinolyl)oxy]phenyl}carbamate]			72 nM	< 10 nM	
COc1cc2ncnc(Oc3ccc(NC(=S)NC(=O)c4cc(C)oc4C)cc3)c2cc1OC [Example 718, N-{4-[(6,7-Dimethoxy-4-quinazolinyl)oxy]phenyl}-N′-[(2,5-dimethyl-3-furyl)carbonyl]thiourea]	< 10 nM				inhibition at 1 µM [1, 3]: 19%
COc1cc2nccc(Oc3cc(C)c(NC(=O)OCCSc4cc(C)ccc4C)cc3C)c2cc1OC [Example 167, 2-[(2,5-Dimethylphenyl)sulfanyl]ethyl N-{4-[(6,7-Dimethoxy-4-quinolyl)oxy]-2,5-dimethylphenyl}carbamate]			370 nM	45 nM	
COc1cc2nccc(Oc3cc(C)c(NC(=O)OCCCOc4ccc(F)cc4)cc3C)c2cc1OC [Example 154, 3-(4-Fluorophenoxy)propyl N-{4-[(6,7-dimethoxy-4-quinolyl)oxy]-2,5-dimethylphenyl}carbamate]			61 nM	40 nM	

Structure (SMILES)	IC50 [2]	IC50 ([1]; 50 ng/ml h-SCF)	IC50 ([1]; h-SCF 50 ng/ml)	IC50 ([2]; Pharmacological Test Example 1)	other results
COc1cc2nccc(Oc3cc(C)c(NCCCOc4ccccc4Cl)cc3C)c2cc1OC [Example 892, N-[3-(2-Chlorophenoxy)propyl]-N-{4-[(6,7-dimethoxy-4-quinolyl)oxy]-2,5-dimethylphenyl}amine]	> 100 nM				inhibition at 1 µM ([1]; figure in parentheses in −( )): 30%; inhibition at 0.1 µM [2, 4]: 25%
CCCC(CC)OC(=O)Nc1ccc(Oc2ccnc3cc(OC)c(OC)cc23)c(C)c1C (centres unmarked) [Example 277, 1-Ethylbutyl N-{4-[(6,7-dimethoxy-4-quinolyl)oxy]-2,3-dimethylphenyl}carbamate]			53 nM	10 nM	
CCN(CCNC(=O)Nc1ccc(Oc2ncnc3cc(OC)c(OC)cc23)cc1Cl)c1cccc(C)c1 [Example 665, N-{2-Chloro-4-[(6,7-dimethoxy-4-quinazolinyl)oxy]phenyl}-N′-[2-(ethyl-3-methylanilino)ethyl]urea]	11 nM	122 nM			
CCCCN(CCCC)CCNC(=O)Nc1ccc(Oc2ncnc3cc(OC)c(OC)cc23)cc1Cl [Example 686, N-{2-Chloro-4-[(6,7-dimethoxy-4-quinazolinyl)oxy]phenyl}-N′-[2-(dibutylamino)ethyl]urea]	38 nM				inhibition at 1 µM [1, 3]: 19%
COc1cc2ncnc(Oc3ccc(OCC(=O)N4CCC(Cc5ccccc5)CC4)cc3)c2cc1OC [Example 804, 1-(4-Benzylpiperidino)-2-{4-[(6,7-dimethoxy-4-quinazolinyl)oxy]phenoxy}-1-ethanone]	37 nM				inhibition at 1 µM [1, 3]: 20%
C=C(C)COC(=O)Nc1ccc(Oc2ncnc3cc(OC)c(OC)cc23)cc1 [Example 407, 2-Methylallyl N-{4-[(6,7-dimethoxy-4-quinazolinyl)oxy]phenyl}carbamate]	26 nM	68 nM			
CCN(CC)CCNC(=O)Nc1cc(C)c(Oc2ccnc3cc(OC)c(OC)cc23)cc1C [Example 623, N-[2-(Diethylamino)ethyl]-N′-{4-[(6,7-dimethoxy-4-quinolyl)oxy]-2,5-dimethylphenyl}urea]	90 nM	632 nM			
COc1cc2ncnc(Oc3ccc(NC(=S)NC(=O)c4ccccc4C)c(N4CCOCC4)c3)c2cc1OC [Example 1151, N-{4-[(6,7-Dimethoxy-4-quinazolinyl)oxy]-2-morpholinophenyl}-N′-(2-methylbenzoyl)thiourea]	< 10 nM				IC50 ([1]; h-SCF stimulation): 146 nM
CCCC(CCC)OC(=O)N(C)c1ccc(Oc2ncnc3cc(OC)c(OC)cc23)cc1Cl [Example 481, 1-Propylbutyl N-{2-chloro-4-[(6,7-dimethoxy-4-quinazolinyl)oxy]phenyl}-N-methylcarbamate]	16 nM				inhibition at 1 µM [1, 3]: 3%
CCCC(CCN1CCOCC1)OC(=O)Nc1ccc(Oc2ccnc3cc(OC)c(OC)cc23)cc1 (centres unmarked) [Example 437, 1-(2-Morpholinoethyl)butyl N-{4-[(6,7-dimethoxy-4-quinolyl)oxy]phenyl}carbamate]	48 nM	250 nM			
COc1cc2nccc(Oc3ccc(NC(=S)NC(=O)Cc4ccccc4F)cc3Cl)c2cc1OC [Example 730, N-{3-Chloro-4-[(6,7-dimethoxy-4-quinolyl)oxy]phenyl}-N′-[2-(2-fluorophenyl)acetyl]thiourea]	34 nM	634 nM			
COc1cc2ncnc(Oc3ccc(NC(=O)OC(C)c4cccc(N(C)C)c4)cc3)c2cc1OC (centres unmarked) [Example 202, 1-[3-(Dimethylamino)phenyl]ethyl N-{4-[(6,7-dimethoxy-4-quinazolinyl)oxy]phenyl}carbamate]			610 nM	10 nM	
COc1cc2nccc(Oc3ccc(NC(=S)NC(=O)CCC4CCCC4)c(Cl)c3)c2cc1OC [Example 1106, N-{2-Chloro-4-[(6,7-dimethoxy-4-quinolyl)oxy]phenyl}-N′-(3-cyclopentylpropanoyl)thiourea]	> 100 nM				inhibition at 1 µM ([1]; figure in parentheses in −( )): 0%; inhibition at 0.1 µM [2, 4]: 30%
COc1cc2nccc(Oc3ccc(NC(=O)Oc4ccc(-c5ccccc5)cc4)cc3)c2cc1OC [Example 294, 4-Phenylphenyl N-{4-[(6,7-dimethoxy-4-quinolyl)oxy]phenyl}carbamate]			109 nM	15 nM	
COc1cc2nccc(Oc3ccc(NC(=O)NCCN4CCCC4)c(C)c3C)c2cc1OC [Example 620, N-{4-[(6,7-Dimethoxy-4-quinolyl)oxy]-2,3-dimethylphenyl}-N′-(2-tetrahydro-1H-1-pyrrolylethyl)urea]	< 10 nM	519 nM			
